In patent US20160346324A1, “Method of Inactivating Bacterial Lipases Using Oxidative Chlorine Species” (NovaBay Pharmaceuticals, Inc., priority 2015, published 2016):
Entries after “also recorded” stand apart in the source; their conditions may differ.

What was measured:
Format in all cases: biochemical
[1] = biological target: T1, Burkholderia cepacia lipase (Burkholderia cepacia, UniProt P22088); assay: Lipase Activity Assay Kit III, Burkholderia cepacia lipase treated with HOCl; details: one hour at 37° C.
T1 construct: purchased Sigma 62309
Description: (§1) Lipases from Burkholderia cepacia, Pseudomonas fluorescens, Thermus thermophilus, Talaromyces flavus and Burkholderia species were obtained from Sigma (Catalog Numbers 62309, 28602, L3419, L3294 and 75577, respectively) and were diluted into sterile water for testing.
Activity of 0.01% HOCl in saline pH 4 against Burkholderia cepacia lipase was determined as follows. 0.01% HOCl was added to a solution of 2 mg/mL of Pseudomonas cepacia lipase (Sigma Aldrich®, St. Louis, Mo., USA). After an hour of incubation at 37° C., the lipase-HOCl solutions were diluted 500-fold into lipase buffer. The lipase activity was determined using the Lipase Activity Assay Kit III (Sigma Aldrich®, St. Louis, Mo., USA).
(§2) Alternative procedure: Activity of 0.01% HOCl in saline pH 4 against each lipase was determined as follows. 10 μL of 0.01% HOCl was added to 90 μL of 2 mg/mL lipase (final concentration of HOCl 0.001%). After one hour of incubation at 37° C., the lipase-HOCl solutions were diluted 500-fold into lipase buffer. Alternatively, 90 μL of 0.01% HOCl was added to 10 μL solution of 2 mg/mL lipase (final concentration of HOCl 0.009%) and after an hour of incubation at 37° C., the lipase-HOCl solutions were diluted 50-fold into lipase buffer. The lipase activity was determined using the Lipase Activity Assay Kit III (Sigma Aldrich®, St. Louis, Mo., USA).
A SpectraMax® M5 Microplate Reader was used to continuously incubate the microtiter plate at 37° C. and measure the fluorescence ([…]=529/600 nm) every 5 minutes for 1.5 hours after an initial 10-minute incubation period. The results are shown on FIG. 1.
Alternative procedure without a 10 minutes incubation: A SpectraMax® M5 Microplate Reader was used to continuously incubate the microtiter plate at 37° C. and measure the fluorescence ([…]=529/600 nm) every 5 minutes for 1.5 hours with no incubation period. The results are shown on FIG. 1. […] The results are shown on FIGS. 1, 2, and 3. […] In the presence of 0.009% HOCl, all lipases were inactivated (FIGS. 2, 3).

[2] = tested on: Pseudomonas fluorescens lipase; assay: Lipase Activity Assay Kit III, Pseudomonas fluorescens lipase treated with HOCl; details: one hour at 37° C.
Description: as §1, §2
(§3) Alternative procedure without a 10 minutes incubation: A SpectraMax® M5 Microplate Reader was used to continuously incubate the microtiter plate at 37° C. and measure the fluorescence ([…]=529/600 nm) every 5 minutes for 1.5 hours with no incubation period. The results are shown on FIG. 1. […]
(§4) Activity of lipases from Pseudomonas fluorescens, Thermusthermophilus, flavus and Burkholderia are determined using methods similar to the one described above for Burkholderia cepacia lipase. […]

[3] = tested on: Talaromyces flavus lipase; assay: Lipase Activity Assay Kit III, Talaromyces flavus lipase treated with HOCl; details: one hour at 37° C.
Description: as §1, §2, §3, §4

lipase = assay: Lipase Activity Assay Kit III, lipase stock treated with equal part of test product versus sterile water; details: 0.01% HOCl solution, 37° C. for 1 hour
Description: Merck describes a fluorimetric method where lipase activity is determined using a coupled enzyme reaction, which results in the generation of methylresorufin (lex=529/lem=600 nm) proportional to the enzymatic activity present. One unit of lipase is the amount of enzyme that will generate […] of methylresorufin from the substrate per minute at 37° C. (Lipase Activity Assay Kit III Catalog Number MAK048). The lipase stock was treated with equal part of the test product. The control consisted of equal parts of the lipase stock and sterile water. Both were incubated at 37° C. for 1 hour.
The Lipase Activity Assay Kit III (Sigma MAK048) consisted of materials for a standard, a positive control and background control. Once all the controls and the standard were set-up into a 96-well microtiter plate according to the provided instructions, 2 μL of the lipase treatments were diluted into 998 μL of the provided Lipase Assay Buffer. In the microtiter plate, 2 μL of this dilution was added to 48 μL of the Lipase Assay Buffer in quintuplicate. The reaction mix was added to every well except for the standard.
Using the SpectraMax M5, the plate was shaken and incubated for 3 minutes prior to reading the relative fluorescence units (RFU) at λex/λem=529/600 nm. Incubation was continued at 37° C. and the microtiter plate was read every 5 minutes for 1 hour with shaking prior to every reading.

[4] = 0.001% HOCl final concentration
[5] = 0.009% HOCl final concentration

T1 sequence (P22088 45-364): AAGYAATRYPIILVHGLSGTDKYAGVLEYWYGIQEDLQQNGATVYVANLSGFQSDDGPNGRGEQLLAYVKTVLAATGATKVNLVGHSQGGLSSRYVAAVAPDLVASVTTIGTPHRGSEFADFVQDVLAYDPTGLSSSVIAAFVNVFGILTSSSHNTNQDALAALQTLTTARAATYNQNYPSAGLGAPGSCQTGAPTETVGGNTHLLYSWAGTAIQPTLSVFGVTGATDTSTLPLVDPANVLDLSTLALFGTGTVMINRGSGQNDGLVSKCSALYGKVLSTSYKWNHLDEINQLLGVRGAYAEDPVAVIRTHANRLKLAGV

Compound: OCl [HOCl, hypochlorous acid]
- inactivation of Burkholderia cepacia lipase [1, 4]: still active
- inactivation of Burkholderia cepacia lipase [1, 5]: inactivation; also recorded: inactivated
- inactivation of bacterial lipase (lipase activity, fluorescence) ([1]; 0.01% HOCl in saline pH 4, 2 mg/mL lipase): completely inactivated
- inactivation of Pseudomonas fluorescens lipase [2, 4]: still active
- inactivation of Pseudomonas fluorescens lipase [2, 5]: inactivation; also recorded: inactivated
- inactivation of Talaromyces flavus lipase [3, 4]: inactivation; also recorded: completely inactivated
- inactivation of Talaromyces flavus lipase [3, 5]: inactivated
- inactivation of lipase versus sterile water control (lipase): inactivates lipase
